In test [1] the target is Multidrug resistance associated protein (Homo sapiens) (UniProt Q96QA9). In words: TP_TRANSPORTER: RT-PCR in HepG2 cells. The format is functional, cell-based.
Test [2] shares this target. In words: TP_TRANSPORTER: Western blot, HepG2 cells. The format is functional, cell-based. On the technique in general: In western blotting, separated proteins are transferred to a membrane and probed.

Chain of Multidrug resistance associated protein (Homo sapiens) (Q96QA9 as listed by the source): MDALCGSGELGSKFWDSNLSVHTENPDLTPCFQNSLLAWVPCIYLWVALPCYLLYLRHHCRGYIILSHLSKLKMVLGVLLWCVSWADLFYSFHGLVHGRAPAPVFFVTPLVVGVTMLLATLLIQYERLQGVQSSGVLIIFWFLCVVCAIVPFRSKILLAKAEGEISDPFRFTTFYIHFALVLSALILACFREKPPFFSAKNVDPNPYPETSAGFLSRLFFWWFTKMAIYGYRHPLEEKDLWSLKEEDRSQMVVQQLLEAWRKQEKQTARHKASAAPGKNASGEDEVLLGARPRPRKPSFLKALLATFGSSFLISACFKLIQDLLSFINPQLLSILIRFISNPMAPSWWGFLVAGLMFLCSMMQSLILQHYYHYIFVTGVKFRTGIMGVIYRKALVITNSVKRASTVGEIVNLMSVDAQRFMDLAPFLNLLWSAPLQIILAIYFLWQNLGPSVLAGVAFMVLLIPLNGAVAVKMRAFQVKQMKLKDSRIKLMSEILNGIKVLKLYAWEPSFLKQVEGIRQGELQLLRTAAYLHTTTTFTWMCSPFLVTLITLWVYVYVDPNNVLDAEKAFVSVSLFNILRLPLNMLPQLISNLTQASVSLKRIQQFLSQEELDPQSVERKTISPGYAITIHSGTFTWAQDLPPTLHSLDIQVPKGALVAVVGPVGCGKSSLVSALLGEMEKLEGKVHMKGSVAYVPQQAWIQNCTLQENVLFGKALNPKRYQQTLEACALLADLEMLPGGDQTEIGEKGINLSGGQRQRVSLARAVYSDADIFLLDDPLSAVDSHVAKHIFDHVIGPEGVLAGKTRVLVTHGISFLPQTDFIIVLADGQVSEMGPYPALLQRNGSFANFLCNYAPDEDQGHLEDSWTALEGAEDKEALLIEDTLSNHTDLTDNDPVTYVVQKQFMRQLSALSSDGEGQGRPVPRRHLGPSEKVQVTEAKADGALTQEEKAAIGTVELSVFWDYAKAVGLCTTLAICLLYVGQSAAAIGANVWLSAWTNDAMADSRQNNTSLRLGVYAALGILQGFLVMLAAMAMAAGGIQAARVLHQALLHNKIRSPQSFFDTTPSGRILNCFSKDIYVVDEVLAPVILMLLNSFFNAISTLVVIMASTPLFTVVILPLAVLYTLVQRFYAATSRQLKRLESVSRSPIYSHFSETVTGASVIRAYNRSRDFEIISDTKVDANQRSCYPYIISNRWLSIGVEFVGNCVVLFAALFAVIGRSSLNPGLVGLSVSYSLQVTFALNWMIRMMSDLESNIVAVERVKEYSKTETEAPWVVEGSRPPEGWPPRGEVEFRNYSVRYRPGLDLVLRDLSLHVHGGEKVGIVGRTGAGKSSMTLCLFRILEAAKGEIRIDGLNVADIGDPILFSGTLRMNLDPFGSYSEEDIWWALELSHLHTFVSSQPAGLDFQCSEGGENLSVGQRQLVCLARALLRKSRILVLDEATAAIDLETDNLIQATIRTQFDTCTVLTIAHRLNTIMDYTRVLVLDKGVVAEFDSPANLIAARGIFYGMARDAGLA

In the case of `O=c1cc(-c2ccccc2)oc2ccc3ccccc3c12`, the Activity entry in test [1] and in test [2] was “inducer []” in each case.
For `COc1ccc2[nH]c([S+]([O-])Cc3ncc(C)c(OC)c3C)nc2c1` (centres undefined), the Activity entry in test [1] and in test [2] was “inducer []” each time.

(Values after ChEMBL document CHEMBL2074438, “Influence of omeprazole on multidrug resistance protein 3 expression in human liver” (J Pharmacol Exp Ther, 2003).)
